Patent publication US20220340629A1, “Myosin Derived Peptides and Related Compounds with Anticoagulant Activities” (THE SCRIPPS RESEARCH INSTITUTE, priority 0001, published 2022)
Starred links: 1 amine or outer side, 2 acyl side, 3 side chain; linkers in the order of their positions; H or OH if unused. Positions of bridges follow the written chain, without caps; N, C: chain ends. Non-standard residues stand in square brackets, D forms with d. Residues, ends and D or L forms follow the SMILES beside them. NMeF = CN[C@@H](Cc1ccccc1)C(=O)O; 3Pal = N[C@@H](Cc1cccnc1)C(=O)O; NMeN = CN[C@@H](CC(N)=O)C(=O)O; Suc = O=C(CCC(=O)[*:2])[*:1]; NMeS = CN[C@@H](CO)C(=O)O; Nle = CCCC[C@H](N)C(=O)O

Experiments:
[1] = test system: thrombin generation in human platelet poor plasma with skeletal muscle myosin; experiment: Assay 2A: thrombin generation, recalcification of human platelet poor plasma + myosin; assay type: biochemical; conditions: human platelet poor plasma 30%, myosin 50 nM, CaCl2 10 mmol/L; read-out: 2A (recalcification +myosin)
Method: Activities of the various peptides and derivative compounds were also examined via assays using recalcification of human plasma. [One of] these assay format (2A) involves monitoring thrombin generation in platelet poor plasma (PPP). Specifically, pooled normal human platelet poor plasma (PPP) (obtained from George King Bio Medical Inc., Overland Park, Kans.) (30%) was incubated with skeletal muscle myosin at 50 nM in the presence of peptide in DMSO or DMSO alone for 5 min at 37° C. Then, fluorogenic thrombin substrate solution (Z-Gly-Gly-Arg-AMC) (I-1140) with CaCl2 (10 mmol/L final) alone was added to the reaction mixture (total 110 μl) to initiate coagulation. Thrombin generation was followed continuously for 25 min using SPECTRAmax GEMINI XS fluorometer (Molecular Devices, Sunnyvale, Calif.) with excitation and emission wavelengths set at 360 and 460 nm, respectively. The first derivative of fluorescence versus time was used to produce thrombin generation curves with the correction for substrate consumption and inner filter effect. For this assay 96 well plate (total 110 μL) or 384 well plates (total 30 μL) were used.
Activities obtained from Assay 2A (recalcification of human plasma in the presence of myosin) were used to rank the various peptides listed in Table 3. As noted above, this assay monitors recalcification of plasma to stimulate thrombin generation. In this assay, potency of the compounds was determined as the peptide concentration for 50% inhibition of thrombin generation, defined as “IC50”.

[2] = biological target: skeletal muscle myosin-supported prothrombin activation by factors Xa and Va (Homo sapiens, UniProt P00742); experiment: Assay 1A: prothrombin activation by factor Xa/factor Va/myosin in purified system; assay type: biochemical, human factors Xa and Va; rabbit skeletal muscle myosin; conditions: purified system; skeletal muscle myosin, factor Va 5 nM, factor Xa 0.2 nM, prothrombin 0.75 μM, 10 min; read-out: 1A (+myosin)
Sequence of skeletal muscle myosin-supported prothrombin activation by factors Xa and Va (Homo sapiens, UniProt P00742) (P00742 41-179): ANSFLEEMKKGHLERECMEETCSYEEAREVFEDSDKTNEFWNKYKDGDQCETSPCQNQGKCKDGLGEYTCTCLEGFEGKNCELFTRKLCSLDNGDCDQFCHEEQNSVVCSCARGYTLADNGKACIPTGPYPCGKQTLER
Sequence of skeletal muscle myosin-supported prothrombin activation by factors Xa and Va (Homo sapiens, UniProt P00742) (P00742 235-488): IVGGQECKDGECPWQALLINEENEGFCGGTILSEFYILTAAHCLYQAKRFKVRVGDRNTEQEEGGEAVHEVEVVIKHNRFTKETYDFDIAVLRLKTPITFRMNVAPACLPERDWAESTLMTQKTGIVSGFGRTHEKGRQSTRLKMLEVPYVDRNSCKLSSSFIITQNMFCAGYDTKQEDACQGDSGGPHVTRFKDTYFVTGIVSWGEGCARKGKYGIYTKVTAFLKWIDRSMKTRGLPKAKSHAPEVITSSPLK
Sequence of skeletal muscle myosin-supported prothrombin activation by factors Xa and Va (Homo sapiens, UniProt P00742) (P12259 29-737 partner): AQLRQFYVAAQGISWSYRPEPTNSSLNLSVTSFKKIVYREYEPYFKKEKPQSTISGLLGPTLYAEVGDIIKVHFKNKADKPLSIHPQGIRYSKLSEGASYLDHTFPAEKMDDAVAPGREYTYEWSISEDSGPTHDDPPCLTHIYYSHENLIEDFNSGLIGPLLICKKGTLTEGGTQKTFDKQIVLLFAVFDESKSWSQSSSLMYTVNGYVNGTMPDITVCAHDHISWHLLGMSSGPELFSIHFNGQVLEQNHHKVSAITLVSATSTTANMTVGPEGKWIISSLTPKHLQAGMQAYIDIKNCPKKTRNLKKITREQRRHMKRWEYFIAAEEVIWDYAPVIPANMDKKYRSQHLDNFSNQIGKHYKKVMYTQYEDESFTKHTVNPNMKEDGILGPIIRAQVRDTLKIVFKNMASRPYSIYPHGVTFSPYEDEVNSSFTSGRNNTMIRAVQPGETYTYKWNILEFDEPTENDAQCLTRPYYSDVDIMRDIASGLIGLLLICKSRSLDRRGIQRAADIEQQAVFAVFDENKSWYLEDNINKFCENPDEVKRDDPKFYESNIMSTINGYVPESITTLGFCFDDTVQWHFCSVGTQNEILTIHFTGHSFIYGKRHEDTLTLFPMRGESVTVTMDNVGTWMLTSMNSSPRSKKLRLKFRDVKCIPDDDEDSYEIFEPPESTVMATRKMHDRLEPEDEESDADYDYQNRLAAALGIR
Sequence of skeletal muscle myosin-supported prothrombin activation by factors Xa and Va (Homo sapiens, UniProt P00742) (P12259 1574-2224 partner): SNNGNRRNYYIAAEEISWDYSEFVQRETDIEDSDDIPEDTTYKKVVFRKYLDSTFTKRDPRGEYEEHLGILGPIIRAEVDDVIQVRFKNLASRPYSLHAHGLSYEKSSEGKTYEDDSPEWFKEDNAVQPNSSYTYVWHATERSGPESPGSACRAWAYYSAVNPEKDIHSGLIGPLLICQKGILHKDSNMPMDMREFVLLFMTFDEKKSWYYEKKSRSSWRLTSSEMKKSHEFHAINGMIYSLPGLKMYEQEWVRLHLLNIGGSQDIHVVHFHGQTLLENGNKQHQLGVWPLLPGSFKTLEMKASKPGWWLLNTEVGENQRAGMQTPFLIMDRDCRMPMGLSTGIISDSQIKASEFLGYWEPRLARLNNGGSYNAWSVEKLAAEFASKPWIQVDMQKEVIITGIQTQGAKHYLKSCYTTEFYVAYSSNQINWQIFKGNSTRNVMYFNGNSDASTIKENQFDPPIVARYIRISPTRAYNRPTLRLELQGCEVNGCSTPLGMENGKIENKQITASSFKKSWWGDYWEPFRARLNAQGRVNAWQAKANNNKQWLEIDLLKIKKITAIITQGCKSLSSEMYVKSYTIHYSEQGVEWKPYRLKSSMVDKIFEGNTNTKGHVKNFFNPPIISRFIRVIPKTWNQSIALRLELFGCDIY

[3] = biological target: phospholipid-supported prothrombin activation by factors Xa and Va (Homo sapiens, UniProt P00742); experiment: Assay 1C: phospholipid vesicle (PC/PS 80%/20%)-supported prothrombin activation; assay type: biochemical
Sequence of phospholipid-supported prothrombin activation by factors Xa and Va (P00742 41-179 limits assumed): as the sequence (P00742 41-179) above
Sequence of phospholipid-supported prothrombin activation by factors Xa and Va (P00742 235-488 limits assumed): as the sequence (P00742 235-488) above

[4] = test system: skeletal muscle myosin-supported prothrombin activation by factors Xa and Va; experiment: Assay 1A: prothrombin activation by factor Xa/factor Va/myosin in purified system; assay type: biochemical, human factors Xa and Va; rabbit skeletal muscle myosin; conditions: for IC50: dose-dependency assays, FIG. 2A, myosin 2 nM, read-out: IC50, inhibition of myosin-supported prothrombin activation; for inhibition of myosin-supported prothrombin activation at 5 μM: peptide 5 μM; for inhibition of myosin-supported prothrombin activation at 5 μM / inhibition of myosin-supported prothrombin activation at 100 μM: FIG. 1A; for inhibition of myosin-supported prothrombin activation at 100 μM: peptide 100 μM

| IC50 [1] | IC50 [2] | Compound | also measured |
| --- | --- | --- | --- |
| 17 µM | 1.5 µM | CCCC[C@H](NC(=O)[C@H](Cc1c[nH]c2ccccc12)NC(=O)[C@@H]1CCCN1C(=O)[C@H](Cc1c[nH]c2ccccc12)NC(=O)[C@H](Cc1c[nH]cn1)NC(=O)[C@H](CCCCN)NC(=O)[C@@H](NC(=O)[C@H](CC(N)=O)NC(=O)[C@H](CCCC)NC(=O)[C@H](Cc1ccccc1)NC(=O)[C@H](CO)NC(=O)[C@H](CCCNC(=N)N)NC(=O)[C@@H](NC(=O)[C@H](CC(N)=O)NC(=O)[C@H](Cc1ccc(O)cc1)NC(=O)[C@H](CCC(N)=O)NC(=O)[C@@H](NC(=O)[C@H](CO)N(C)C(=O)[C@H](Cc1ccccc1)NC(=O)[C@@H](NC(=O)[C@H](C)N)[C@@H](C)CC)[C@@H](C)CC)[C@@H](C)CC)C(C)C)C(=O)N[C@@H](CCCCN)C(N)=O [HC189] (H-AIF[NMeS]IQYNIRSF[Nle]NVKHWPW[Nle]K-NH2; N-terminus assumed) |  |
| 10 µM | 0.59 µM | CCCC[C@H](NC(=O)[C@H](Cc1c[nH]c2ccccc12)NC(=O)[C@@H]1CCCN1C(=O)[C@H](Cc1c[nH]c2ccccc12)NC(=O)[C@H](Cc1c[nH]cn1)NC(=O)[C@H](CCCCN)NC(=O)[C@@H](NC(=O)[C@H](CC(N)=O)NC(=O)[C@H](CCCC)NC(=O)[C@H](Cc1ccccc1)NC(=O)[C@H](CO)NC(=O)[C@H](CCCNC(=N)N)NC(=O)[C@@H](NC(=O)[C@H](CC(N)=O)NC(=O)[C@H](Cc1ccc(O)cc1)NC(=O)[C@H](CCC(N)=O)NC(=O)[C@@H](NC(=O)[C@H](CO)NC(=O)[C@H](Cc1ccccc1)NC(=O)[C@@H](NC(=O)[C@H](C)N)[C@@H](C)CC)[C@@H](C)CC)[C@@H](C)CC)C(C)C)C(=O)N[C@@H](CCCCN)C(N)=O [HC188] (H-AIFSIQYNIRSF[Nle]NVKHWPW[Nle]K-NH2; N-terminus assumed) |  |
| 16 µM | 0.87 µM | CCCC[C@H](NC(=O)[C@H](Cc1c[nH]c2ccccc12)NC(=O)[C@@H]1CCCN1C(=O)[C@H](Cc1c[nH]c2ccccc12)NC(=O)[C@H](Cc1c[nH]cn1)NC(=O)[C@H](CCCCN)NC(=O)[C@@H](NC(=O)[C@H](CC(N)=O)NC(=O)[C@H](CCCC)NC(=O)[C@H](Cc1ccccc1)N(C)C(=O)[C@H](CO)NC(=O)[C@H](CCCNC(=N)N)NC(=O)[C@@H](NC(=O)[C@H](CC(N)=O)NC(=O)[C@H](Cc1ccc(O)cc1)NC(=O)[C@H](CCC(N)=O)NC(=O)[C@@H](NC(=O)[C@H](CS)NC(=O)[C@H](Cc1ccccc1)NC(=O)[C@@H](NC(=O)[C@H](C)N)[C@@H](C)CC)[C@@H](C)CC)[C@@H](C)CC)C(C)C)C(=O)N[C@@H](CCCCN)C(N)=O [HC198] (H-AIFCIQYNIRS[NMeF][Nle]NVKHWPW[Nle]K-NH2; N-terminus assumed) |  |
|  |  | CC[C@H](C)[C@H](NC(=O)[C@H](CC(C)C)NC(=O)[C@H](CCC(N)=O)NC(=O)[C@H](C)NC(=O)[C@H](CC(C)C)NC(=O)[C@H](CCCCN)NC(=O)[C@H](CC(=O)O)NC(=O)[C@H](CC(=O)O)NC(=O)[C@H](CCCNC(=N)N)NC(=O)[C@H](CCSC)NC(=O)[C@@H](N)CCC(=O)O)C(=O)N[C@H](C(=O)N[C@@H](CCCNC(=N)N)C(=O)N[C@H](C(=O)N[C@@H](CCC(N)=O)C(=O)N[C@@H](C)C(=O)N[C@@H](CCCNC(=N)N)C(=O)N[C@@H](CS)C(=O)N[C@@H](CCCNC(=N)N)C(=O)NCC(=O)N[C@@H](Cc1ccccc1)C(=O)N[C@@H](CC(C)C)C(=O)N[C@@H](C)C(=O)N[C@@H](CCCNC(=N)N)C(=O)N[C@H](C(=O)N[C@@H](CCC(=O)O)C(=O)N[C@@H](Cc1ccc(O)cc1)C(=O)N[C@@H](CCC(N)=O)C(=O)N[C@@H](CCCNC(=N)N)C(=O)N[C@@H](CCSC)C(N)=O)C(C)C)[C@@H](C)O)[C@@H](C)O [HC781-810] (H-EMRDDKLAQLITRTQARCRGFLARVEYQRM-NH2) | IC50 ([3]; PC/PS vesicles 4 μM, read-out: IC50, phospholipid vesicles containing 20% phosphatidylserine-supported prothrombin activation): 7.5 µM; IC50 [4]: 64 µM; inhibition of myosin-supported prothrombin activation at 5 μM [4]: inhibitory, to varying degrees; inhibition of myosin-supported prothrombin activation at 100 μM [4]: inhibited |
| 13 µM | 1.7 µM | CCCC[C@H](NC(=O)[C@H](Cc1c[nH]c2ccccc12)NC(=O)[C@@H]1CCCN1C(=O)[C@H](Cc1c[nH]c2ccccc12)NC(=O)[C@H](Cc1c[nH]cn1)NC(=O)[C@H](CCCCN)NC(=O)[C@@H](NC(=O)[C@H](CC(N)=O)NC(=O)[C@H](CCCC)NC(=O)[C@H](Cc1ccccc1)NC(=O)[C@H](CO)NC(=O)[C@H](CCCNC(=N)N)NC(=O)[C@@H](NC(=O)[C@H](CC(N)=O)NC(=O)[C@H](Cc1ccc(O)cc1)NC(=O)[C@H](CCC(N)=O)NC(=O)[C@@H](NC(=O)[C@H](CS)NC(=O)[C@H](Cc1cccnc1)NC(=O)[C@@H](NC(=O)[C@H](C)N)[C@@H](C)CC)[C@@H](C)CC)[C@@H](C)CC)C(C)C)C(=O)N[C@@H](CCCCN)C(N)=O [HC178] (H-AI[3Pal]CIQYNIRSF[Nle]NVKHWPW[Nle]K-NH2; N-terminus assumed) |  |
|  |  | QEEIKNMWAAFPPDVGGNVDYKNICYVITH [RLC133-162] | inhibitory effects on phospholipid-supported prothrombin activation ([3]; compared with effects on myosin-supported prothrombin activation): not apparent; IC50 [4]: 26 µM; inhibition of myosin-supported prothrombin activation at 5 μM [4]: inhibitory, to varying degrees; inhibition of myosin-supported prothrombin activation at 100 μM [4]: inhibited |
| 9 µM |  | CC[C@H](C)[C@H](NC(=O)[C@H](C)N)C(=O)N[C@@H](Cc1ccccc1)C(=O)N[C@@H](CS)C(=O)N[C@H](C(=O)N[C@@H](CCC(N)=O)C(=O)N[C@@H](Cc1ccc(O)cc1)C(=O)N[C@@H](CC(N)=O)C(=O)N[C@H](C(=O)N[C@@H](CCCNC(=N)N)C(=O)N[C@@H](CO)C(=O)N[C@@H](Cc1ccccc1)C(=O)N[C@@H](CCSC)C(=O)N[C@@H](CC(N)=O)C(=O)N[C@H](C(=O)N[C@@H](CCCCN)C(=O)N[C@@H](Cc1c[nH]cn1)C(=O)N[C@@H](Cc1c[nH]c2ccccc12)C(=O)N1CCC[C@H]1C(=O)N[C@@H](Cc1c[nH]c2ccccc12)C(=O)N[C@@H](CCSC)C(=O)N[C@@H](CCCCN)C(=O)N[C@@H](CC(C)C)C(=O)N[C@@H](Cc1ccccc1)C(=O)N[C@@H](Cc1ccccc1)C(=O)N[C@@H](CCCCN)C(=O)N[C@H](C(=O)N[C@@H](CCCCN)C(N)=O)[C@@H](C)CC)C(C)C)[C@@H](C)CC)[C@@H](C)CC [HC101] (H-AIFCIQYNIRSFMNVKHWPWMKLFFKIK-NH2; N-terminus and C-terminus assumed) |  |
| 5.8 to 10.2 µM | 0.46 µM | CCCC[C@H](NC(=O)[C@H](Cc1c[nH]c2ccccc12)NC(=O)[C@@H]1CCCN1C(=O)[C@H](Cc1c[nH]c2ccccc12)NC(=O)[C@H](Cc1c[nH]cn1)NC(=O)[C@H](CCCCN)NC(=O)[C@@H](NC(=O)[C@H](CC(N)=O)N(C)C(=O)[C@H](CCCC)NC(=O)[C@H](Cc1ccccc1)NC(=O)[C@H](CO)NC(=O)[C@H](CCCNC(=N)N)NC(=O)[C@@H](NC(=O)[C@H](CC(N)=O)NC(=O)[C@H](Cc1ccc(O)cc1)NC(=O)[C@H](CCC(N)=O)NC(=O)[C@@H](NC(=O)[C@H](CS)NC(=O)[C@H](Cc1ccccc1)NC(=O)[C@@H](NC(=O)[C@H](C)N)[C@@H](C)CC)[C@@H](C)CC)[C@@H](C)CC)C(C)C)C(=O)N[C@@H](CCCCN)C(N)=O [HC199] (H-AIFCIQYNIRSF[Nle][NMeN]VKHWPW[Nle]K-NH2) |  |
| 9.5 µM |  | CC[C@H](C)[C@H](NC(=O)[C@H](C)NC(=O)[C@H](CCC(=O)O)NC(=O)[C@H](CCCNC(=N)N)NC(=O)[C@H](CCCNC(=N)N)NC(=O)[C@H](CCC(=O)O)NC(=O)[C@@H]1CCCCNC(=O)CCC(=O)NCCCC[C@@H]2NC(=O)[C@H](C)NC(=O)[C@H](CC(C)C)NC(=O)[C@@H](NC(=O)CNC(=O)[C@H](CCCNC(=N)N)NC(=O)[C@H](CS)NC(=O)[C@H](CCCNC(=N)N)NC(=O)[C@H](C)N)CCCCNC(=O)CCC(=O)NCCCC[C@H](NC(=O)[C@H](Cc3ccc(O)cc3)NC(=O)[C@H](CCC(=O)O)NC(=O)[C@H](C(C)C)NC2=O)C(=O)N[C@@H](CCCNC(=N)N)C(=O)N[C@@H](CCSC)C(=O)N1)C(=O)N[C@@H](Cc1ccccc1)C(=O)N[C@@H](CS)C(=O)N[C@H](C(=O)N[C@@H](CCC(N)=O)C(=O)N[C@@H](Cc1ccc(O)cc1)C(=O)N[C@@H](CC(N)=O)C(=O)N[C@H](C(=O)N[C@@H](CCCNC(=N)N)C(=O)N[C@@H](CO)C(=O)N[C@@H](Cc1ccccc1)C(=O)N[C@@H](CCSC)C(=O)N[C@@H](CC(N)=O)C(=O)N[C@H](C(=O)N[C@@H](CCCCN)C(=O)N[C@@H](Cc1c[nH]cn1)C(=O)N[C@@H](Cc1c[nH]c2ccccc12)C(=O)N1CCC[C@H]1C(=O)N[C@@H](Cc1c[nH]c2ccccc12)C(N)=O)C(C)C)[C@@H](C)CC)[C@@H](C)CC [HC155] (H-ARCRGKLAKVEYKRMKERREAIFCIQYNIRSFMNVKHWPW-NH2; linker 6-13, 9-16 via Suc (inferred); N-terminus and C-terminus assumed) |  |
